According to US10611771B2, “Pyrazolo [3,4-d] pyrimidine derivative” (WEST CHINA HOSPITAL, SICHUAN UNIVERSITY, priority 2016, dated 2020):
“And” between values parts separate entries of the source, which are not always exact repeats. Identical values can stand only once.

Tested on: A549 cells
Assay: MTT detection method, inhibitory effect against A549 cells
Assay type: cell-based
Source text: MTT detection method was used, and MTT is a yellow compound and a dye accepting hydrogen ions, and can be used as the respiratory chain in mitochondria of viable cells. Under the action of succinate dehydrogenase and cytochrome C, the tetrazolium ring broke to form blue formanzan crystal, and the formation amount of formanzan crystal was only directly proportional to the viable counts. The formanzan crystal formed by reduction can dissolve in dimethyl sulfoxide (DMSO), and the optical density (OD) value can be determined at 490 nm using ELISA, to reflect the viable counts.
• Lung cancer cell lines: A549 and H1299. • Experimental materials: lung cancer cell lines, instruments and tools for cell culture, MTT, the compound mother liquid (10 mmol/L), and the positive control drug Src inhibitor pp1. 1. Specific Method • (3-1) Cell lines A549 and H1299 were recovered, and when the cells were in good conditions, namely cells grew to about 80% after one passage (i.e. the logarithmic growth phase), the cells were planked (96-well plate). • (3-2) Firstly, cells were collected, and the concentration of cell suspension was adjusted with counting chamber. Cells were seeded in 96-well plate at 1000˜10000 cells/well, and the detailed cell numbers in each well were dependent on the growth rate of different cells and the action time of drugs. A549 cells were seeded at 5000 cells, while H1299 cells were also seeded at 5000 cells, 200 μl for each well (100 μl cell suspension+100 μl drug dilution at different concentration gradient). The edge wells (36) were added 200 μl culture media (for prevention of edge effect). • (3-3) After planking and adding drugs, the plate was treated at 24 h, 48 h, and 72 h, and then for coloration, each well was added 200 μl culture media containing 20 μl MTT solution (5 mg/mL). The plate was continually cultured for 1˜4 hours, the incubation was stopped, and the culture supernatant fluid in each well was carefully absorbed. For suspension cells, the culture supernatant fluid in each well need be centrifuged before drawing. 150 μl DMSO was added to each well, and the plate was shaken on a shaking table for 15˜20 min, to allow the crystals to be completely dissolved. • (3-4) Colorimetry: The colorimetry was performed by ELISA, and the optical absorption value of each well was tested at a wavelength of 490 nm or 570 nm, and the result was recorded. • (3-5) Calculation Inhibition ratio=(the control−the drug)/the control×100% • IC50 (50% inhibitory concentration) can be calculated by spass software based on the inhibitory ratio at different concentration. II. Experimental Results • A549 cells were treated at 4 h, 24 h, 48 h, 72 h, and the drug dose was divided into the light concentration group (10 μm, 25 μm, 40 μm) and the high concentration group (50 μm, 80 μm, 100 μm), that were seeded at 6000 cells/well and 5000 cells/well, respectively, to carry out the experiment.

## CCCCn1nc(-c2ccc(OCCOCCOCCOCCOS(=O)(=O)c3ccc(C)cc3)cc2)c2c(N)ncnc21 [Compound 2, 2-(2-(2-(2-(4-(4-amino-1-n-butyl-1H-pyrazolo[3,4-d]pyrimidin-3-)phenoxy)ethoxy)ethoxy)ethoxy)ethyl 4-methylbenzenesulfonic Acid]
4 h, 10 μm
  The inhibitory ratio (%) for three parallel assays: 25.00% and 30.31% and 29.06%
  The mean inhibitory ratio (%): 28.13%
4 h, 25 μm
  The inhibitory ratio (%) for three parallel assays: 14.38% and 17.19% and 13.44%
  The mean inhibitory ratio (%): 15.00%
4 h, 40 μm
  The mean inhibitory ratio (%): 14.17%
4 h, 50 μm
  The inhibitory ratio (%) for three parallel assays: 34.57%
  The mean inhibitory ratio (%): 34.57%
4 h, 80 μm
  The inhibitory ratio (%) for three parallel assays: 34.86% and 36.86% and 35.14%
  The mean inhibitory ratio (%): 35.62%
4 h, 100 μm
  The inhibitory ratio (%) for three parallel assays: 39.43% and 38.29% and 35.71%
  The mean inhibitory ratio (%): 37.81%
24 h, 10 μm
  The inhibitory ratio (%) for three parallel assays: 16.09% and 20.22% and 12.83%
  The mean inhibitory ratio (%): 16.38%
24 h, 25 μm
  The inhibitory ratio (%) for three parallel assays: 20.43% and 18.48% and 18.70%
  The mean inhibitory ratio (%): 19.20%
24 h, 40 μm
  The inhibitory ratio (%) for three parallel assays: 18.48% and 24.35% and 23.91%
  The mean inhibitory ratio (%): 22.25%
24 h, 50 μm
  The inhibitory ratio (%) for three parallel assays: 71.46% and 71.25% and 71.04%
  The mean inhibitory ratio (%): 71.25%
24 h, 80 μm
  The inhibitory ratio (%) for three parallel assays: 75.63% and 75.83% and 74.79%
  The mean inhibitory ratio (%): 75.42%
24 h, 100 μm
  The inhibitory ratio (%) for three parallel assays: 73.75% and 75.83% and 74.58%
  The mean inhibitory ratio (%): 74.72%
48 h, 10 μm
  The inhibitory ratio (%) for three parallel assays: 24.84% and 31.41% and 29.22%
  The mean inhibitory ratio (%): 28.49%
48 h, 25 μm
  The inhibitory ratio (%) for three parallel assays: 32.66% and 36.72% and 31.56%
  The mean inhibitory ratio (%): 33.65%
48 h, 40 μm
  The inhibitory ratio (%) for three parallel assays: 47.97% and 47.66% and 49.06%
  The mean inhibitory ratio (%): 48.23%
48 h, 50 μm
  The inhibitory ratio (%) for three parallel assays: 82.83% and 81.50% and 80.33%
  The mean inhibitory ratio (%): 81.56%
48 h, 80 μm
  The inhibitory ratio (%) for three parallel assays: 82.67% and 83.00% and 82.83%
  The mean inhibitory ratio (%): 82.83%
48 h, 100 μm
  The inhibitory ratio (%) for three parallel assays: 83.17% and 83.00% and 82.83%
  The mean inhibitory ratio (%): 83.00%
72 h, 10 μm
  The inhibitory ratio (%) for three parallel assays: 30.00% and 29.46%
  The mean inhibitory ratio (%): 29.64%
72 h, 25 μm
  The inhibitory ratio (%) for three parallel assays: 48.74% and 47.21% and 50.00%
  The mean inhibitory ratio (%): 48.65%
72 h, 40 μm
  The inhibitory ratio (%) for three parallel assays: 68.92% and 70.36% and 70.63%
  The mean inhibitory ratio (%): 69.97%
72 h, 50 μm
  The inhibitory ratio (%) for three parallel assays: 88.11% and 87.97% and 88.38%
  The mean inhibitory ratio (%): 88.15%
72 h, 80 μm
  The inhibitory ratio (%) for three parallel assays: 88.51% and 88.38%
  The mean inhibitory ratio (%): 88.47%
72 h, 100 μm
  The inhibitory ratio (%) for three parallel assays: 88.38% and 88.65% and 88.51%
  The mean inhibitory ratio (%): 88.51%
